From article PMC7883289, “Synthesis of Paeonol-Ozagrel Conjugate: Structure Characterization and In Vivo Anti-Ischemic Stroke potential” (Frontiers in Pharmacology, 2021) come the findings set out here.

For data set [1], the system named is PC12 cells. Briefly: Cell viability, CCK8 method. Type of data set: cell-based, Rat. The note with it: 24 h, CCK8, tested 37.5 to 1,200.0 μM. The procedure:
Rat PC12 pheochromocytoma cells were obtained from the Cell Resource Center, Peking Union Medical College. PC12 cells were grown as monolayers in tissue culture flasks at 37°C under a humidified, 5% CO2 atmosphere in the high–glucose Dulbecco’s Modified Eagle Medium (DMEM) medium.
The CCK8 (MedChemExpress, United States) method was used to estimate the cytotoxic effects of POC. Before treatment, the cells were seeded onto 96-well culture plates at an appropriate density according to the experimental protocol. After 24 h, the medium was replaced with fresh medium containing varying concentrations (37.5, 75.0, 150.0, 300.0, 600.0, 1,200.0 μM) from the POC serial dilutions. And PC12 was allowed to grow for another 24 h. After incubation, the cell viability was evaluated using the CCK8 assay. The absorbance was read at 450 nm on a microplate reader. These cell viability experiments were made in triplicate.

The subject of data set [2] is middle cerebral artery occlusion (MCAO) rats. Briefly: Evaluation of neurological deficit (Longa score) in MCAO rats. To be noted: 24 h after reperfusion, single iv dose 2 h after reperfusion: paeonol and OS 3 mg/kg, POC 4.5 mg/kg, n = 6. Type of data set: in vivo. On the procedure:
Male Sprague Dawley (SD) rats weighing among 220 g-230 g (Anhui Medicine University, Hefei, China; certificate number: SCXK20190,003) were housed under ad libitum access to food and water with a standardized light-dark cycle condition (25 ± 2°C, 12-hour light/dark cycle). All the experimental protocols were performed in accordance with the Institutional Animal Care and Use Committee of Anhui University of Chinese Medicine (Animal ethics number: AHUCM-rats-2019001). We used the minimal number of study animals (n = 6 rats in each group for different experiments). The rats were fastened upon the operating table in a supine position after being anesthetized with 2% pelltobarbitalum natricum (50 mg/kg). After disinfection of the skin within close proximity of the operative region, the right common carotid artery (CCA), external carotid artery (ECA) and internal carotid artery (ICA) were exposed with blunt dissection. The CCA was temporarily ligated and the ECA were permanently ligated ([Liu et al., 2016]). A nylon monofilament surgical thread was introduced into the ICA to block the MCA when the blunted distal end met resistance. After 2 h of occlusion, reperfusion was accomplished to restore blood supply to the MCA area by removing the filament ([Li et al., 2009]; [Zhai et al., 2017]). […] Rats were split randomly into five groups, including the sham, model, paeonol, OS and POC group. […] Neurological deficit was evaluated 24 h after reperfusion (blinded to experimenters). […] The rating score was assessed by the following standard: no neurological deficit, 0; failure to extend left forepaw fully, one; spontaneous circling to the left, two; falling to the left, three; inability to walk spontaneously and coma of consciousness, 4. […] Neurological scores for each group were calculated using six rats according to a sample size calculation (α err prob = 0.05, 1-β err prob = 0.95) and references ([Katayama et al., 2017]; [[…] al., 2019]; [Zheng et al., 2019]).

Data set [3] deals with SOD and MDA. Nature of the data set: Oxidative stress biomarker assay (SOD, MDA) in brain tissue of MCAO rats. Type of data set: in vivo. The note with it: whole brain homogenate, POC 4.5 mg/kg iv compared with the paeonol and OS groups (3 mg/kg iv), n = 6. The procedure:
Male Sprague Dawley (SD) rats weighing among 220 g–230 g (Anhui Medicine University, Hefei, China; certificate number: SCXK20190,003) were housed under ad libitum access to food and water with a standardized light-dark cycle condition (25 ± 2°C, 12–hour light/dark cycle). All the experimental protocols were performed in accordance with the Institutional Animal Care and Use Committee of Anhui University of Chinese Medicine (Animal ethics number: AHUCM–rats–2019001). We used the minimal number of study animals (n = 6 rats in each group for different experiments). The rats were fastened upon the operating table in a supine position after being anesthetized with 2% pelltobarbitalum natricum (50 mg/kg). After disinfection of the skin within close proximity of the operative region, the right common carotid artery (CCA), external carotid artery (ECA) and internal carotid artery (ICA) were exposed with blunt dissection. The CCA was temporarily ligated and the ECA were permanently ligated ([Liu et al., 2016]). A nylon monofilament surgical thread was introduced into the ICA to block the MCA when the blunted distal end met resistance. After 2 h of occlusion, reperfusion was accomplished to restore blood supply to the MCA area by removing the filament ([Li et al., 2009]; [Zhai et al., 2017]). […] A microplate reader was used to measure the absorbance at 450 and 532 nm with a UV spectrophotometer. […]

Data set [4] in a line: Solubility of POC in solvents (described in words). The data set is classed as physicochemical.

Regarding `COc1ccc(C(C)=O)c(OC(=O)C=Cc2ccc(Cn3ccnc3)cc2)c1` [POC, paeonol-ozagrel conjugate], the “concentration with no viability loss / no toxic effect” value in data set [1] was “less than 75 μM”. Also, the “neurological deficits score (Longa, 0-4)” value in data set [2] came out at 1.50 ± 0.55. For the same molecule, in data set [3], the “MDA levels in brain tissue” value was “lowest MDA levels” and the “SOD levels in brain tissue” value is reported as “highest SOD levels”. In addition, in data set [4] (ethyl acetate), the “solubility in ethyl acetate” value is listed as “slightly soluble”. Moreover, in data set [4] (methanol and ethanol), the “solubility in methanol and ethanol” value is listed as “easily soluble”. The solubility in water entry in data set [4] (water) was “almost insoluble or insoluble”.
